The record followed here is ChEMBL document CHEMBL2434967, “Synthesis, characterization, antiparasitic and cytotoxic evaluation of thioureas conjugated to polyamine scaffolds” (Eur J Med Chem, 2013).

One may read the IC50 as the concentration that gives 50% inhibition. Read a high IC50 as a need for much substance.

Assay [1] can be described thus: Cytotoxicity against human WHCO1 cells after 48 hrs by MTT assay. The class given is functional, cell-based. The note with it: WHCO1, 48 h. A general note: Formazan colour is commonly taken as a measure of viable cells.
Assay [2] has as its system Trichomonas vaginalis. The experiment in a line: Antimicrobial activity against Trichomonas vaginalis G3 assessed as growth inhibition at 10 uM after 24 hrs by hemocytometry. In kind it is functional. As to conditions: G3, 24 h, read-out: GI.
Assay [3] is described as follows: Inhibition of beta-hematin formation after overnight incubation by NP-40 detergent-mediated spectroscopic analysis. The class given is functional.
Assay [4] deals with Plasmodium falciparum. In words: Resistance index, ratio of IC50 for chloroquine-resistant Plasmodium falciparum Dd2 to IC50 for chloroquine-sensitive Plasmodium falciparum NF54. In kind it is functional.
Assay [5] concerns Plasmodium falciparum. In words: Antiplasmodial activity against chloroquine-resistant erythrocyte stages of Plasmodium falciparum Dd2 by parasite lactate dehydrogenase assay. In kind it is functional, organism-based.
Assay [6] concerns Plasmodium falciparum. The experiment in a line: Antiplasmodial activity against chloroquine-sensitive erythrocyte stages of Plasmodium falciparum NF54 by parasite lactate dehydrogenase assay. In kind it is functional, organism-based.

Molecules are shown by their SMILES.

Regarding `CCCNC(=S)NCCCNc1ccnc2cc(Cl)ccc12`, the IC50 in assay [1] turned out to be 43.8 µM; in assay [3] it was 58.2 µM; in assay [5], 0.26 µM; in assay [6] it was 0.16 µM. In addition, the inhibition of growth at 10 µM in assay [2] came to 34.9%. In addition, the “Ratio IC50” value in assay [4] was 1.6.

Consider `S=C(NCCCNC(=S)NCCCNc1ccnc2cc(Cl)ccc12)NCCCNc1ccnc2cc(Cl)ccc12`, for which the IC50 in assay [1] worked out at 38.4 µM; in assay [3], 6.52 µM; in assay [5] it was 0.23 µM; in assay [6], 0.34 µM. The inhibition of growth at 10 µM in assay [2] was found to be 55.9%. In addition, the “Ratio IC50” value in assay [4] came to 0.7.

As for `S=C(NCCCNc1ccnc2cc(Cl)ccc12)NCCN(CCNC(=S)NCCCNc1ccnc2cc(Cl)ccc12)CCNC(=S)NCCCNc1ccnc2cc(Cl)ccc12`, the IC50 in assay [1] came out at 6.21 µM; in assay [3], 4.48 µM; in assay [5], 0.52 µM; in assay [6] it was 0.09 µM. For the same compound, the inhibition of growth at 10 µM in assay [2] was 51.4%. Also, in assay [4], the “Ratio IC50” value was determined as 5.8.

`S=C(NCCCNc1ccnc2cc(Cl)ccc12)NCCCN(CCCCN(CCCNC(=S)NCCCNc1ccnc2cc(Cl)ccc12)CCCNC(=S)NCCCNc1ccnc2cc(Cl)ccc12)CCCNC(=S)NCCCNc1ccnc2cc(Cl)ccc12`: the IC50 in assay [1] was 0.99 µM; in assay [3] it was < 4.5 µM; in assay [5], 0.51 µM; in assay [6], 0.2 µM. Besides, the inhibition of growth at 10 µM in assay [2] worked out at 58.7%. Besides, the “Ratio IC50” value in assay [4] came to 2.5.

`CCN(CC)CCCC(C)Nc1ccnc2cc(Cl)ccc12` (stereo unspecified) [CHLOROQUINE]: the half-inhibitory concentration (IC50) in assay [3] is 73.8 µM.

As to `Cc1ncc([N+](=O)[O-])n1CCO` [METRONIDAZOLE], the inhibition of growth at 10 µM in assay [2] worked out at 100%.
